The structures appear in SMILES notation.

The text below walks through data of publication PMC6278656, “Synthesis and Biological Evaluation of Phaeosphaeride A Derivatives as Antitumor Agents” (Molecules, 2018).

Format in all cases: cell-based
Test [1] relates to human colorectal cancer HCT-116 cells. The test is described as follows: MTT cytotoxicity assay, HCT-116. As to conditions: Homo sapiens, MTT, 72 h, n = 3, ± SD, read-out: Adhesive Cell Cultures, IC50 HCT-116. The procedure:
(§1) All newly synthesized PPA derivatives 1–8 were evaluated for their anti-proliferative activity against human breast cancer MCF-7, human prostate adenocarcinoma PC-3, human colorectal cancer HCT-116, human lung cancer A549, human chronic myelogenous leukemia K562, human acute monocytic leukemia THP-1, human multiple myeloma RPMI8226, human acute T-cell leukemia Jurkat, human multiple myeloma NCI-H929, and human embryonic fibroblasts HEF cell lines by MTT assays. All cells were incubated with different concentrations of PPA derivatives for 72 h, with etoposide and PPA used as reference compounds. The anticancer activity of the tested compounds was described as the concentration of drug inhibiting 50% cell growth IC50 (Table 1 and Table 2).
(§2) ^1H-NMR spectra were acquired on an AVANCE III 400 MHz NMR spectrometer (Bruker, Rheinstetten, Germany) in CDCl3. Optical rotations were acquired on a Polaar 3005 Polarimeter (Optical Activity, Huntingdon, Great Britain) using a 2.5 cm cell with a Na 589 nm filter and the concentration of samples was denoted as c. Mass spectra data were acquired on a TSQ Quantum Access Max Mass spectrometer (Thermo Fisher Scientific, Waltham, MA, USA). High-resolution mass spectra (HRMS) were acquired on a LTQ Orbitrap Velos spectrometer (Thermo Scientific) and on a Bruker MicrOTOF. FTIR spectra were acquired on an IR Affinity-1 spectrometer (Shimadzu, Thermo Scientific). Organic solvents used were dried by standard methods when necessary. Commercially available reagents were used without further purification. All reactions were monitored by TLC with silica gel coated plates (EMD/Merck KGaA, Darmstadt, Germany), with visualization by UV light and by charring with 0.1% ninhydrin in EtOH. Column chromatography was performed using Merck 60 Å 70–230 mesh silica gel. The optical density was determined using a Multiskan FC spectrophotometer (Thermo Scientific) at a wavelength of 540 nm when using the MTT assay.
(§3) MCF-7 (breast cancer), PC-3 (prostate adenocarcinoma), HCT-116 (colorectal cancer cell), A549 (lung cancer), K562 (chronic myelogenous leukemia), THP-1 (acute monocytic leukemia), and RPMI8226 (multiple myeloma), Jurkat (acute T-cell leukemia), HEF (human embryonic fibroblasts) was purchased from the Russian Academy of Sciences Cells Bank (Institute of Cytology of the Russian Academy of Sciences, Saint Petersburg, Russian Federation). Multiple myeloma cell line NCI-H929 was purchased from ATCC (USA). The MCF-7, A549 and HEF (human embryonic fibroblasts) were cultured in DMEM medium. Other cell lines were cultured in RPMI1640 medium, (PanEco, Russia) supplemented with 10% fetal bovine serum (GE Healthcare LifeSciences, São Paulo, Brazil), and gentamicin at a concentration of 40 μg/mL and cultured at 37 °C in a humidified atmosphere containing 5% CO2. All experiments were performed with cells at passages 3 to 7 in the logarithmic phase of growth.
(§4) Cells were seeded into 96-well plates of 5 × 10^3 for adhesive cultures and 20 × 10^3 for suspension cultures per well in 90 μL and 135 μL of culture medium, respectively. The test substances were dissolved in DMSO to a concentration of 1 × 10^−2 M. For subsequent dilution of the substances, a serum-free culture medium was used as the diluent. Final concentration of DMSO in wells was no more than 1%. […] Substances were added to the cells in 3–4 replicates after 24 h for adhesive cultures and immediately for suspension cultures. 10–15 μL of serum-free medium was added to the control wells with non-exposed cells. Cells were cultured for 72 h at 37 °C in an atmosphere of 5% CO2.

The subject of test [2] is human prostate adenocarcinoma PC-3 cells. Briefly: MTT cytotoxicity assay, PC-3. To be noted: Homo sapiens, MTT, 72 h, n = 3, ± SD, read-out: Adhesive Cell Cultures, IC50 PC-3. How it is done:
as §1, §2, §3, §4
(In general: Tetrazolium assays rely on reduction of a dye to a coloured formazan, in cell work by metabolically active cells.)

Test [3] deals with human breast cancer MCF-7 cells. The test is described as follows: MTT cytotoxicity assay, MCF-7. To be noted: MCF7, 72 h, n = 3, ± SD, read-out: Adhesive Cell Cultures, IC50 MCF-7. The procedure: as §1, §2, §3, §4
In test [4] the test system is human lung cancer A549 cells. Briefly: MTT cytotoxicity assay, A549. To be noted: 72 h, n = 3, ± SD, read-out: Adhesive Cell Cultures, IC50 A549. How it is done:
as §1, §2, §3, §4

For test [5], the system named is human embryonic fibroblasts HEF. The test is described as follows: MTT cytotoxicity assay, HEF (control cells). As to conditions: Fibroblast, 72 h, n = 3, ± SD, read-out: Adhesive Cell Cultures, IC50 HEF. How it is done:
as §1, §2, §3, §4

The test system of test [6] is human chronic myelogenous leukemia K562 cells. Briefly: MTT cytotoxicity assay, K562. To be noted: Homo sapiens, MTT, 72 h, n = 3, ± SD, read-out: Suspension Cell Cultures, IC50 К562. How it is done:
as §1, §2, §3, §4

The test system of test [7] is human multiple myeloma NCI-H929 cells. Briefly: MTT cytotoxicity assay, NCI-H929. As to conditions: Homo sapiens, MTT, 72 h, n = 3, ± SD, read-out: Suspension Cell Cultures, IC50 NCI-Н929. How it is done: as §1, §2, §3, §4
Test [8] relates to human acute T-cell leukemia Jurkat cells. The test is described as follows: MTT cytotoxicity assay, Jurkat. As to conditions: Homo sapiens, MTT, 72 h, n = 3, ± SD, read-out: Suspension Cell Cultures, IC50 Jurkat. The procedure: as §1, §2, §3, §4
Test [9] concerns human acute monocytic leukemia THP-1 cells. Briefly: MTT cytotoxicity assay, THP-1. To be noted: 72 h, n = 3, ± SD, read-out: Suspension Cell Cultures, IC50 THP-1. The procedure:
as §1, §2, §3, §4

Test [10] has as its system human multiple myeloma RPMI8226 cells. Briefly: MTT cytotoxicity assay, RPMI8226. To be noted: Homo sapiens, RPMI-8226; MTT, 72 h, n = 3, ± SD; read-out: Suspension Cell Cultures, IC50 RPMI8228. How it is done:
as §1, §2, §3, §4

A word on the IC50: it is the concentration at which inhibition is half-maximal. Take `C=C1C2=C(C(=O)N1OC)[C@@H](NC)[C@@](C)(O)[C@H](CCCCC)O2` [Compound 1, (2S,3R,4R)-3-Hydroxy-6-methoxy-3-methyl-4-(methylamino)-7-methylene-2-pentyl-3,4,6,7-tetrahydro-pyrano[2,3-c]pyrrol-5(2H)-one]: the IC50 was found to be 3.68 ± 0.81 µM in test [1]; 3.35 ± 0.92 µM in test [2]; 4.1 ± 0.44 µM in test [3]; 12.7 ± 0.4 µM in test [4]; 22.3 ± 0.44 µM in test [5]; 3.25 ± 0.64 µM in test [6]. For the same compound, the IC50 is 1.35 ± 0.69 µM in test [7], 2.75 ± 0.21 µM in test [8], 2.25 ± 0.21 µM in test [9] and 3.97 ± 0.68 µM in [10].
For the compound `C=C1C2=C(C(=O)N1OC)[C@@H](NCCO)[C@@](C)(O)[C@H](CCCCC)O2` [Compound 2, (2S,3R,4R)-3-Hydroxy-4-[(2-hydroxyethyl)amino]-6-methoxy-3-methyl-7-methylene-2-pentyl-3,4,6,7-tetra-hydropyrano[2,3-c]pyrrol-5(2H)-one], the IC50 was 4.63 ± 0.04 µM in [1]; 5.55 ± 1.48 µM in test [2]; 3.23 ± 1.07 µM in test [3]; 15.1 ± 0.45 µM in test [4]; 16.2 ± 0.26 µM in test [5]; 5.5 ± 0.57 µM in [6]. In addition, the IC50 in [7] came to 2.05 ± 0.35 µM; in [8], 2.6 ± 0.99 µM; in test [9], 2.3 ± 0.57 µM; in [10] it was 3.5 ± 0.82 µM.
Take `C=C1C2=C(C(=O)N1OC)[C@@H](NCCCCO)[C@@](C)(O)[C@H](CCCCC)O2` [Compound 3, (2S,3R,4R)-3-Hydroxy-4-[(4-hydroxybutyl)amino]-6-methoxy-3-methyl-7-methylene-2-pentyl-3,4,6,7-tetra-hydropyrano[2,3-c]pyrrol-5(2H)-one]: the IC50 in test [1] worked out at 2.9 ± 0.98 µM; in [2] it was 4.5 ± 1.56 µM; in test [3], 3.05 ± 1.2 µM; in test [5] it was 15.2 ± 1.02 µM; in test [6] it was 6.7 ± 0.28 µM; in [7], 1.95 ± 0.21 µM. The values for the IC50 in test [8], in [9] and in [10] were 3.15 ± 1.77 µM, 2.6 ± 0.57 µM and 2.7 ± 0.28 µM, respectively.
Regarding `C=CCN[C@@H]1C2=C(O[C@@H](CCCCC)[C@]1(C)O)C(=C)N(OC)C2=O` [Compound 4, (2S,3R,4R)-4-(Allylamino)-3-hydroxy-6-methoxy-3-methyl-7-methylene-2-pentyl-3,4,6,7-tetrahydropyrano-[2,3-c]pyrrol-5(2H)-one], the IC50 was 8.4 ± 0.24 µM in test [1]; 6.37 ± 0.18 µM in [2]; 4.13 ± 0.23 µM in test [3]; 12.7 ± 0.27 µM in [4]; 5.03 ± 0.15 µM in [5]; 10.5 ± 0.41 µM in [6]. Moreover, the IC50 is 2.35 ± 0.09 µM in [7], 3.27 ± 0.07 µM in test [8], 3.32 ± 0.1 µM in [9] and 6 ± 0.13 µM in test [10].
As for `C=C1C2=C(C(=O)N1OC)[C@@H](NCc1ccccc1)[C@@](C)(O)[C@H](CCCCC)O2` [Compound 5, (2S,3R,4R)-4-(benzylamino)-3-hydroxy-6-methoxy-3-methyl-7-methylene-2-pentyl-3,4,6,7-tetrahydro-pyrano[2,3-c]pyrrol-5(2H)-one], the IC50 is 12.9 ± 0.3 µM in test [1]; 24.7 ± 1.24 µM in test [2]; 35.7 ± 0.65 µM in test [3]; 37.5 ± 1.33 µM in [4]; 53.1 ± 1.06 µM in [5]; 14.1 ± 0.48 µM in [6]. The concentration for half-maximal inhibition (IC50) in test [8] was 10.1 ± 0.44 µM; in [9] it was 15.1 ± 0.36 µM; in test [10], 16 ± 0.16 µM.
As to `C=C1C2=C(C(=O)N1OC)[C@@H](N1CCC(N3CCCC3)CC1)[C@@](C)(O)[C@H](CCCCC)O2` [Compound 7, (2S,3R,4R)-3-Hydroxy-6-methoxy-3-methyl-7-methylene-2-pentyl-4-(4-pyrrolidin-1-ylpiperidin-1-yl)-3,4,6,7-tetrahydropyrano[2,3-c]pyrrol-5(2H)-one], the concentration for half-maximal inhibition (IC50) in test [1] was 1.65 ± 0.63 µM; in [2], 3.65 ± 0.64 µM; in test [3], 1.8 ± 0.44 µM; in [4] it was 12.2 ± 0.2 µM; in test [5], 22.3 ± 0.33 µM; in [6], 6.03 ± 0.91 µM. The IC50 in [7] came out at 2 ± 0.26 µM; in test [8] it was 2.73 ± 1.53 µM; in test [9], 3.45 ± 0.21 µM; in [10], 3.35 ± 1.48 µM.
On to `C=C1C2=C(C(=O)N1OC)[C@@H](N1CCC(O)CC1)[C@@](C)(O)[C@H](CCCCC)O2` [Compound 8, (2S,3R,4R)-3-Hydroxy-4-(4-hydroxypiperidin-1-yl)-6-methoxy-3-methyl-7-methylene-2-pentyl-3,4,6,7-tetra-hydropyrano[2,3-c]pyrrol-5(2H)-one], for which the IC50 was 2.64 ± 0.05 µM in test [1]; 4.53 ± 0.4 µM in test [2]; 3.2 ± 0.52 µM in test [3]; 9.4 ± 0.14 µM in test [4]; 6.7 ± 0.23 µM in test [5]; 4.9 ± 2.4 µM in test [6]. For the same compound, the half-maximal inhibitory concentration (IC50) in test [7] was found to be 1.87 ± 0.25 µM; in test [8], 2.6 ± 1.13 µM; in test [9], 2.1 ± 0.28 µM; in [10], 1.4 ± 0.28 µM.
As for `C=C1C2=C(C(=O)N1OC)[C@H](O)[C@@](C)(O)[C@H](CCCCC)O2` [PPA, phaeosphaeride A], the IC50 worked out at 24.2 ± 0.75 µM in test [1]; 32.1 ± 0.77 µM in test [2]; 20.3 ± 0.8 µM in [3]; 41.1 ± 2.6 µM in [4]; 19.1 ± 0.25 µM in test [5]; 20.5 ± 1.46 µM in [6]. The IC50 worked out at 6.5 ± 0.3 µM in test [7], 9.7 ± 0.42 µM in test [8], 19.1 ± 0.45 µM in [9] and 9.15 ± 0.64 µM in [10].
